US20260256792A1, “TREATMENT OF CHRONIC SPONTANEOUS URTICARIA BY ADMINISTERING (R)-2-[3-[4-AMINO-3-(2-FLUORO-4-PHENOXY-PHENYL)PYRAZOLO[3,4-D]PYRIMIDIN-1-YL]PIPERIDINE-1-CARBONYL]-4-METHYL-4-[4-(OXETAN-3-YL)PIPERAZIN-1-YL]PENT-2-ENENITRILE” (priority 2023, published 2026)

Test system: moderate-to-severe chronic spontaneous urticaria (CSU)
Assay: Phase 2 CSU study: urticaria activity score over 7 days (UAS7)
Type: in vivo, human
Parameters: key to UAS7 Median / UAS7 Change from baseline Median / UAS7 change from baseline, Q1 / UAS7 change from baseline, Q3 / UAS7 change from baseline, Max / UAS7 Change from baseline LS Mean (SE): UAS7 points; daily UAS score ranges 0–6 points/day, over 7 days
Description: The study comprises a 12 week, randomized, double-blind, placebo-controlled, multi-center, dose-ranging efficacy and safety phase, followed by a 40 week open label extension (OLE) phase (see FIG. 1). The study consists of three phases and an optional OLE phase. […] Clinically, CSU is characterized by the spontaneous and recurrent appearance of pruritic hives. The proposed primary endpoints were the UAS7 at Week 12 in EU and EU reference countries and the ISS7 in the US. Regardless of where a participant was from, all assessments were the same. The UAS7 score is a composite score containing both the HSS7 and the ISS7. This allowed a global assessment of the two key components of urticaria: hives and itch. […] The UAS is a validated PRO measure. […] The daily UAS scores range from 0 to 6 point/day. […] Patients were to complete the UAS using the e-diary. […] The following secondary endpoints were to be analyzed using the same approach as for the primary endpoint: • Change from baseline in UAS7 at Week 4 • Change from baseline in UAS7 at Week 12 (for US and US reference countries) • Change from baseline in ISS7 at Week 12 (except US and US reference countries) • Change from baseline in HSS7 at Week 12 The following responder secondary endpoints were to be analyzed using the Cochran-Mantel-Haenszel test adjusted by region: • Proportion of participants with UAS7<6 at Week 12 • Proportion of participants with UAS7=0 at Week 12 Participants who received selected prohibited medications and/or rescue medications were to be considered as non-responders for time points after the medication usage. For other participants, all available data including those collected during the off-treatment period were to be used to determine the responder/non-responder status. Missing data were to be considered as non-responders.

[1] = Week 3, 400 mg TID, Omalizumab-Naïve
[2] = Week 3, 400 mg TID, Prior Omalizumab Use
[3] = Week 3, 400 mg TID, omalizumab-naive participants
[4] = Week 4, 400 mg BID, ITT population
[5] = Week 4, 400 mg BID, Omalizumab-Naïve
[6] = Week 4, 400 mg BID, Prior Omalizumab Use
[7] = Week 4, 400 mg BID, omalizumab-naive participants
[8] = Week 4, 400 mg QPM, ITT population
[9] = Week 4, 400 mg QPM, Omalizumab-Naïve
[10] = Week 4, 400 mg QPM, Prior Omalizumab Use
[11] = Week 4, 400 mg QPM, omalizumab-naive participants
[12] = Week 4, 400 mg TID, ITT population
[13] = Week 4, 400 mg TID, Omalizumab-Naïve
[14] = Week 4, 400 mg TID, Prior Omalizumab Use

In the case of `CC(C)(C=C(C#N)C(=O)N1CCC[C@@H](n2nc(-c3ccc(Oc4ccccc4)cc3F)c3c(N)ncnc32)C1)N1CCN(C2COC2)CC1` [rilzabrutinib, (R)-2-[3-[4-amino-3-(2-fluoro-4-phenoxy-phenyl)pyrazolo[3,4-d]pyrimidin-1-yl]piperidine-1-carbonyl]-4-methyl-4-[4-(oxetan-3-yl)piperazin-1-yl]pent-2-enenitrile], the “UAS7 Percent change from baseline Mean (SD)” value (shortened to “UAS7 Percent change … (SD)”) [1] is reported as −48.87 (33.07) %, the “UAS7 Percent change from baseline Median” value [1] is reported as −48.08% and the “UAS7 Change from baseline Mean (SD)” value [2] is reported as −24.14 (11.99). For the same molecule, the “UAS7 Change from baseline Median” value [2] was −24.50, the “UAS7 Median” value [2] was 7.67 and the “UAS7 Percent change … (SD)” value [2] was −71.37 (19.75) %. The “UAS7 Percent change from baseline Median” value [2] was −64.58%, the “Non-responder, UAS7 reduction from baseline of 10 points or more” value (“Non-responder, UAS7 reduction” below) [3] was 14 (40.0) n (%) and the “OR for rilzabrutinib vs. placebo, UAS7 reduction of 10 points or more” value [3] was 2.949. For the same molecule, the “RRD (%) for rilzabrutinib vs. placebo, UAS7 reduction of 10 points or more” value (shortened to “RRD (%) … UAS7 reduction of 10 points or more”) [3] was 27.1 %, the “Responder, UAS7 reduction from baseline of 10 points or more” value [3] was 21 (60.0) n (%) and the “Non-responder, UAS7 reduction” value [4] was 19 (46.3) n (%). The “OR for rilzabrutinib vs. placebo, UAS7 reduction of 10 points or more” value [4] was 1.853, the “RRD (%) … UAS7 reduction of 10 points or more” value [4] was 14.7 % and the “Responder, UAS7 reduction from baseline of 10 points or more” value [4] was 22 (53.7) n (%). The “UAS7 Change from baseline Mean (SD)” value [5] was −13.49 (10.97), the “UAS7 Change from baseline Median” value [5] was −11.00 and the “UAS7 Mean (SD)” value [5] was 15.92 (11.71). For the same molecule, the “UAS7 Median” value [5] was 14.00, the “UAS7 Percent change … (SD)” value [5] was −46.55 (35.69) % and the “UAS7 Percent change from baseline Median” value [5] was −41.94%. The “UAS7 Change from baseline Mean (SD)” value [6] was −21.80 (16.62), the “UAS7 Change from baseline Median” value [6] was −26.00 and the “UAS7 Mean (SD)” value [6] was 13.60 (16.55). The “UAS7 Median” value [6] was 3.00, the “UAS7 Percent change … (SD)” value [6] was −62.33 (45.90) % and the “UAS7 Percent change from baseline Median” value [6] was −91.43%. The “Non-responder, UAS7 reduction” value [7] was 17 (48.6) n (%), the “OR for rilzabrutinib vs. placebo, UAS7 reduction of 10 points or more” value [7] was 2.046 and the “RRD (%) … UAS7 reduction of 10 points or more” value [7] was 16.8 %. The “Responder, UAS7 reduction from baseline of 10 points or more” value [7] was 18 (51.4) n (%), the “Non-responder, UAS7 reduction” value [8] was 23 (60.5) n (%) and the “OR for rilzabrutinib vs. placebo, UAS7 reduction of 10 points or more” value [8] was 1.224. The “RRD (%) … UAS7 reduction of 10 points or more” value [8] was 4.4 %, the “Responder, UAS7 reduction from baseline of 10 points or more” value [8] was 15 (39.5) n (%) and the “UAS7 Change from baseline Mean (SD)” value [9] was −9.18 (9.24). The “UAS7 Change from baseline Median” value [9] was −7.00, the “UAS7 Mean (SD)” value [9] was 21.92 (8.82) and the “UAS7 Median” value [9] was 21.00. The “UAS7 Percent change … (SD)” value [9] was −27.91 (26.53) %, the “UAS7 Percent change from baseline Median” value [9] was −21.88% and the “UAS7 Change from baseline Mean (SD)” value [10] was −23.00 (NC). The “UAS7 Change from baseline Median” value [10] was −23.00, the “UAS7 Mean (SD)” value [10] was 18.00 (NC) and the “UAS7 Median” value [10] was 18.00. For the same molecule, the “UAS7 Percent change … (SD)” value [10] was −56.10 (NC) %, the “UAS7 Percent change from baseline Median” value [10] was −56.10% and the “Non-responder, UAS7 reduction” value [11] was 23 (62.2) n (%). For the same molecule, the “OR for rilzabrutinib vs. placebo, UAS7 reduction of 10 points or more” value [11] was 1.322, the “RRD (%) … UAS7 reduction of 10 points or more” value [11] was 6.0 % and the “Responder, UAS7 reduction from baseline of 10 points or more” value [11] was 14 (37.8) n (%). For the same molecule, the “Non-responder, UAS7 reduction” value [12] was 12 (29.3) n (%), the “OR for rilzabrutinib vs. placebo, UAS7 reduction of 10 points or more” value [12] was 3.520 and the “RRD (%) … UAS7 reduction of 10 points or more” value [12] was 29.4 %. For the same molecule, the “Responder, UAS7 reduction from baseline of 10 points or more” value [12] was 29 (70.7) n (%), the “UAS7 Change from baseline Mean (SD)” value [13] was −15.51 (9.79) and the “UAS7 Change from baseline Median” value [13] was −14.00. For the same molecule, the “UAS7 Mean (SD)” value [13] was 14.65 (9.61), the “UAS7 Median” value [13] was 14.00 and the “UAS7 Percent change … (SD)” value [13] was −51.19 (29.70) %. For the same molecule, the “UAS7 Percent change from baseline Median” value [13] was −51.09%, the “UAS7 Change from baseline Mean (SD)” value [14] was −22.94 (13.84) and the “UAS7 Change from baseline Median” value [14] was −22.50. For the same molecule, the “UAS7 Mean (SD)” value [14] was 10.08 (10.62), the “UAS7 Median” value [14] was 8.58 and the “UAS7 Percent change … (SD)” value [14] was −67.07 (27.75) %.
